Measurements reported in publication PMC8552062, “Contributions of UDP-Glucuronosyltransferases to Human Hepatic and Intestinal Metabolism of Ticagrelor and Inhibition of UGTs and Cytochrome P450 Enzymes by Ticagrelor and its Glucuronidated Metabolite” (Frontiers in Pharmacology, 2021).
Values joined by “and” are separate entries in the source; they are usually repeats but may differ in a detail not shown here. Equal values may be shown once.

Legend:
[1] = tested on: human liver microsomes (HLM); test: Ticagrelor glucuronidation kinetics in pooled HLM; assay type: in vitro ADME
Procedure: (§1) Ticagrelor glucuronidation was investigated in an in vitro incubation system by using HLM, HIM, and recombinant human UGTs. The incubation system consisted of enzyme sources (HLM, HIM, or human recombinant UGTs), various concentrations of ticagrelor (dissolved in 50% methanol, 1% v/v, 1, 2, 5, 10, 20, 50, 100, 200, 500 μM of final concentration), alamethicin (50 μg/mg protein), 5 mM MgCl2, 100 mM tris-HCL buffer (pH 7.4), and 5 mM UDPGA in a total volume of 100 μl. Alamethicin is a pore-forming polypeptide used to activate UGTs in HLM and HIM ([Fisher et al., 2000]). Preliminary studies were conducted to determine the optimal protein concentrations and incubation times. Linear conditions of ticagrelor-O-Glu formation from ticagrelor, i.e., HLM, 0.2 mg of protein/ml and 60 min, HIM, 0.2 mg of protein/ml and 60 min, and recombinant human UGTs, 0.2 mg of protein/ml and 60 min were selected. The incubation mixture without UDPGA was placed on ice for 15 min to activate UGT by alamethicin. After pre-incubation for 5 min at 37°C, the reactions were started by the addition of UDPGA. After another 60 min of incubation at 37°C, the reaction was terminated by adding 100 μl of acetonitrile containing internal standard (diazepam). The mixture vortexed for 2 min and then centrifuged at 14,000 rpm for 10 min at 4°C. The resulting supernatant was injected into a liquid chromatography tandem mass spectrometry (LC-MS/MS, Applied Biosystems/MDS Sciex, Foster City, CA) system for the detection of ticagrelor-O-Glu.
Kinetic analyses were performed using the mean values of triplicate determinations with either pooled HLM, HIM, or recombinant human UGTs. All data were analyzed by nonlinear regression analysis using the GraphPad Prism 6 (GraphPad Software Inc., CA, United States). Michaelis-Menten kinetics (Eq. 1) or substrate inhibition kinetics (Eq. 2) ([Houston and Kenworthy, 2000]) were tested to determine the optimal model for describing the data. […] Intrinsic clearance (CLint) was calculated by dividing Vmax by Km.

[2] = design: method as in Husted et al., 2006; conditions: humans, 100 mg b.i.d.; ref Husted et al., 2006; cited from earlier work
UGT1A1 = molecular target: T1, UGT1A1 (Homo sapiens, UniProt P22309); test: Ticagrelor glucuronidation by recombinant human UGT1A1; assay type: in vitro ADME; design: purchased BD Gentest; host or cells: baculovirus-infected insect cells; conditions: recombinant human UGT1A1, pH 7.4
T1 sequence (P22309 26-533): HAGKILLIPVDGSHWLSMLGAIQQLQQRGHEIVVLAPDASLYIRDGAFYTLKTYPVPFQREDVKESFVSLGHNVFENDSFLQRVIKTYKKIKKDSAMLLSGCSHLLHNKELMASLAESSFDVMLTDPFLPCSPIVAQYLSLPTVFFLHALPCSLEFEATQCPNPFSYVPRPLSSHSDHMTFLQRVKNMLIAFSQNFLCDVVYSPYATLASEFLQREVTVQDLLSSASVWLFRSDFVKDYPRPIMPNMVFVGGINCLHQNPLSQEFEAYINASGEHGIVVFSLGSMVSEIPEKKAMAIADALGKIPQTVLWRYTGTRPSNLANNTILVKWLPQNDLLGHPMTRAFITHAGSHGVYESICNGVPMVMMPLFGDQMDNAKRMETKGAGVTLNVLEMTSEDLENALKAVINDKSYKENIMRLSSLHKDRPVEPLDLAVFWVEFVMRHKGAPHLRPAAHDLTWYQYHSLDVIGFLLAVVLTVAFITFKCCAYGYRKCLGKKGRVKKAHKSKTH
Procedure: as §1, with “After pre-incubation for 5 min at 37°C, the reactions were started by the addition of UDPGA. After another 60 min of incubation at 37°C, the reaction was terminated by adding 100 μl of acetonitrile containing internal standard (diazepam). The mixture vortexed for 2 min and then centrifuged at 14,000 rpm for 10 min at 4°C. The resulting supernatant was injected into a liquid chromatography tandem mass spectrometry (LC-MS/MS, Applied Biosystems/MDS Sciex, Foster City, CA) system for the detection of ticagrelor-O-Glu.” left out
Kinetic analyses were performed using the mean values of triplicate determinations with either pooled HLM, HIM, or recombinant human UGTs. All data were analyzed by nonlinear regression analysis using the GraphPad Prism 6 (GraphPad Software Inc., CA, United States). […] Intrinsic clearance (CLint) was calculated by dividing Vmax by Km.

CYP2D6 = molecular target: T2, CYP2D6 (Homo sapiens, UniProt P10635); test: CYP2D6 inhibition in HLM (dextromethorphan O-demethylase); assay type: in vitro ADME; conditions: HLM 0.2 mg/ml
T2 construct: co-incubation ticagrelor-O-Glu with selective P450 probe substrates in HLM; tissue XenoTech LLC; host or cells: pooled human liver microsomes
Procedure: (§2) The potential inhibitory effects of ticagrelor-O-Glu on the activities of major CYPs, i.e., CYP2B6, CYP2C8, CYP2C9, CYP2C19, CYP2D6, and CYP3A4, were evaluated by co-incubation ticagrelor-O-Glu with selective P450 probe substrates in HLM. Each incubation mixture containing 0.2 mg/ml HLM, ticagrelor-O-Glu and respective substrate (the final substrate concentrations are close to or less than the Km values: 150 μM bupropion, 1.26 μM amodiaquine, 10 μM diclofenac, 20 μM mephenytoin, 20 μM dextromethorphan and 80 μM testosterone (in house data)) in potassium phosphate buffer (100 mM, pH 7.4) was pre-incubated at 37°C for 5 min. Then, NADPH (10 mM) was added to initiate the reaction. The final volume of the incubation mixture was 100 μl. After incubation at 37°C for specific time points, the reaction was terminated by the addition of 200 μl of ice-cold methanol solution with internal standards (diazepam and furafylline). […] The formation of respective metabolites was determined to reflect P450 isoform activities. The metabolites quantified for CYP2B6, CYP2C8, CYP2C9, CYP2C19, CYP2D6, and CYP3A4 were hydroxy bupropion, N-Desethyl amodiaquine, 4′-hydroxylation diclofenac, S-4-hydroxy mephenytoin, dextrorphan and 6β-hydroxy testosterone, respectively.
(§3) The percent inhibition relative to the control was calculated to indicate the UGTs or CYPs inhibition. […]

CYP3A4 = molecular target: T3, CYP3A4 (Homo sapiens, UniProt P08684); test: CYP3A4 inhibition in HLM (testosterone 6β-hydroxylase); assay type: in vitro ADME; conditions: human liver microsomes, pH 7.4, probe testosterone (80 μM), 6β-hydroxy testosterone formation
T3 construct: co-incubation ticagrelor-O-Glu with selective P450 probe substrates in HLM; tissue XenoTech LLC; host or cells: pooled human liver microsomes
Procedure: as §2, §3

T3 sequence (P08684 whole entry): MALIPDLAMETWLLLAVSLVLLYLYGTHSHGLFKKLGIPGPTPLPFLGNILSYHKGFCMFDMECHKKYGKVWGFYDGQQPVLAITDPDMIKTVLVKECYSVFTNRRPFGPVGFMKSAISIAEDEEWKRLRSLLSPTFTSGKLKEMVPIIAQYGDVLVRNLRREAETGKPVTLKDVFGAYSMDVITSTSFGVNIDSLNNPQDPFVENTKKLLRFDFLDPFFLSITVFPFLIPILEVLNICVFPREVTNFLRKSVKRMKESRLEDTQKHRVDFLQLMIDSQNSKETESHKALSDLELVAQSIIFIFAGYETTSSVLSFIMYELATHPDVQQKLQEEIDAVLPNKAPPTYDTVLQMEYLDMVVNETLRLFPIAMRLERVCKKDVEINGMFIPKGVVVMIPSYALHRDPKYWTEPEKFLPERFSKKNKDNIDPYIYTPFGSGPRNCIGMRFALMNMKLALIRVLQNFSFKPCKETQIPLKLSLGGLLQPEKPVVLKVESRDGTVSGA
T2 sequence (P10635 whole entry): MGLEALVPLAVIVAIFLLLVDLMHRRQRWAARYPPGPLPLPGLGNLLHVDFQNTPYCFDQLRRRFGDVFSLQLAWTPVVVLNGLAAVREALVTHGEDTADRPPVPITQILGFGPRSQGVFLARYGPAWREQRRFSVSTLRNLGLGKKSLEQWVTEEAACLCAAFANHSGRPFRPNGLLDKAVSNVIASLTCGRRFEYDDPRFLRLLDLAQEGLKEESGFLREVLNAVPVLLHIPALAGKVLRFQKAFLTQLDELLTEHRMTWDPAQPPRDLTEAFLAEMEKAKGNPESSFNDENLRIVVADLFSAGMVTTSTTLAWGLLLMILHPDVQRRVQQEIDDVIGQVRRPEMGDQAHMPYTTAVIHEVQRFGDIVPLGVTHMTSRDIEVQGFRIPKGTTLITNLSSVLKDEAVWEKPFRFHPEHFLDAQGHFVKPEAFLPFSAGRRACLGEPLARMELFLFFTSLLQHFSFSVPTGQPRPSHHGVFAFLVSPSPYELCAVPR

| SMILES | Ksi ([1]; pooled HLM) | Vmax ([1]; pooled HLM) | Km ([1]; pooled HLM 0.2 mg protein/ml, 60 min, substrate inhibition kinetics) | steady-state maximal plasma concentration (Cmax) [2] | microsomal CLint (UGT1A1) | IC50 (CYP2D6) | IC50 (CYP3A4; CYP3A4, testosterone 6β-hydroxylase, HLM 0.2 mg/ml) | inhibition at 100 µM (CYP3A4; HLM, 100 μM ticagrelor-O-Glu, read-out: inhibition of CYP3A4 enzyme activity) |
| --- | --- | --- | --- | --- | --- | --- | --- | --- |
| CCCSc1nc(N[C@@H]2C[C@H]2c2ccc(F)c(F)c2)c2nnn([C@@H]3C[C@H](OCCO)[C@@H](O)[C@H]3O)c2n1 [Ticagrelor] | 1,343 μM and 1,343.0 μM | 8.03 pmol·min^−1·mg protein^−1 | 5.65 µM | 810 ng/mL | 0.03 µL/min/mg | – | – | – |
| CCCSc1nc(N[C@@H]2C[C@H]2c2ccc(F)c(F)c2)c2nnn([C@@H]3C[C@H](OCCO[C@@H]4O[C@H](C(=O)O)[C@@H](O)[C@H](O)[C@H]4O)[C@@H](O)[C@H]3O)c2n1 [Ticagrelor-O-Glu, ticagrelor-O-glucuronide] | – | – | – | – | – | > 100 µM | > 100 µM | 57.1% |
